Read-outs that look alike come from different tables or passages of the source. Positions of bridges follow the written chain, without caps; N, C: chain ends. Chains are numbered I, II in the order given. No end group written: not given here.

Test [1] concerns basal cAMP in cells expressing RXFP1. It is filed as cell-based.
Test [2] has as its system relaxin-stimulated cAMP via RXFP1. It is filed as cell-based.
Test [3] concerns basal cAMP in cells expressing RXFP2 or pcDNA. As to the kind of experiment: Effect of PDE inhibition on basal cAMP, HEK293 expressing RXFP2 or pcDNA. It is filed as cell-based. The note with it: IBMX 100 μM, 30 min; RXFP1 versus RXFP2 or pcDNA.
A further test relates to RXFP2/1. Briefly: Single-cell FRET cAMP.
For test [4], the target named is T1, RXFP2 (Homo sapiens, UniProt Q8WXD0). As to the kind of experiment: Single-cell FRET cAMP.
T1 sequence (Q8WXD0 whole entry, species assumed): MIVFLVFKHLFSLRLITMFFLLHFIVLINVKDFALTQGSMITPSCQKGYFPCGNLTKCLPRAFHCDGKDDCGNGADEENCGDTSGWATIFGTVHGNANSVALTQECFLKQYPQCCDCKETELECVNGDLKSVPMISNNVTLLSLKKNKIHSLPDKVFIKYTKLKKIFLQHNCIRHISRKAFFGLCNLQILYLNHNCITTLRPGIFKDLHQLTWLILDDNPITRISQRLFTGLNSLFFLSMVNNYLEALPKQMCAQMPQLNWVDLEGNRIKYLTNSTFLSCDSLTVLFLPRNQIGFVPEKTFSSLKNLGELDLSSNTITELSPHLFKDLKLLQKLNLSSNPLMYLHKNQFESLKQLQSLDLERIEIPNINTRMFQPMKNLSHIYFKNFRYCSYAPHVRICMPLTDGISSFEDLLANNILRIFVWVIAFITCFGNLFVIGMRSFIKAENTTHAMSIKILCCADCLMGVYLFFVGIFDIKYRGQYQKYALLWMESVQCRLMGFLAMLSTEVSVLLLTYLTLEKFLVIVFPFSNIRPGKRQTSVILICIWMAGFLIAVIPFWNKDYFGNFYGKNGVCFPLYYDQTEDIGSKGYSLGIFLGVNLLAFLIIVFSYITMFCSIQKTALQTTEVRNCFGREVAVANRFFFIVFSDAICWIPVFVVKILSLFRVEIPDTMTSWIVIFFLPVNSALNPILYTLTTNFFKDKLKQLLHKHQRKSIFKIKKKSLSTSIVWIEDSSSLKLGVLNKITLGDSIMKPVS
The target of test [5] is T1, RXFP2. Briefly: Single-cell FRET cAMP. This is another data set of the same source.
The target of test [6] is T2, RXFP1 (Rattus norvegicus, UniProt Q6R6I6).
T2 sequence (Q6R6I6 1-758): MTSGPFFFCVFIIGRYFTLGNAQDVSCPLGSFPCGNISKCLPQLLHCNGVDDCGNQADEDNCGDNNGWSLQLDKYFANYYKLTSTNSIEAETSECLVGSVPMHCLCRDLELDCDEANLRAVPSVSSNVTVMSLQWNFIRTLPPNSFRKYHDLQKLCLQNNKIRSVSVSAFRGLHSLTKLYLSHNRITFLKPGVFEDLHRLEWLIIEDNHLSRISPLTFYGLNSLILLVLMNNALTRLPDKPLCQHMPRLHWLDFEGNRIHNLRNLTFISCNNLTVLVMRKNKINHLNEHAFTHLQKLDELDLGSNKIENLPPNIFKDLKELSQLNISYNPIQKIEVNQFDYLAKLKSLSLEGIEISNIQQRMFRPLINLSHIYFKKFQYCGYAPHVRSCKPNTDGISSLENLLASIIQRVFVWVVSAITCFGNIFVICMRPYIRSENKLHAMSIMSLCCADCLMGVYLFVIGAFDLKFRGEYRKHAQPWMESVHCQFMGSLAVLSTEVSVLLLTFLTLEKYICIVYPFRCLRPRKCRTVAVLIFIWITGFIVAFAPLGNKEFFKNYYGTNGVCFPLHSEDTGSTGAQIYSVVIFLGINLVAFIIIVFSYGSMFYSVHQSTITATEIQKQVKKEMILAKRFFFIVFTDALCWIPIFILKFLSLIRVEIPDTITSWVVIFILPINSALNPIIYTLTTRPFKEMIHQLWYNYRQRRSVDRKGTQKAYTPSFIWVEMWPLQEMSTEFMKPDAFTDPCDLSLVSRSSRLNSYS
Briefly: Single-cell FRET cAMP. The note with it: rat cardiac fibroblasts, PTX pre-treatment.

Test [7] has as its target T3, RXFP1 (Homo sapiens, UniProt Q9HBX9).
T3 sequence (Q9HBX9 1-757): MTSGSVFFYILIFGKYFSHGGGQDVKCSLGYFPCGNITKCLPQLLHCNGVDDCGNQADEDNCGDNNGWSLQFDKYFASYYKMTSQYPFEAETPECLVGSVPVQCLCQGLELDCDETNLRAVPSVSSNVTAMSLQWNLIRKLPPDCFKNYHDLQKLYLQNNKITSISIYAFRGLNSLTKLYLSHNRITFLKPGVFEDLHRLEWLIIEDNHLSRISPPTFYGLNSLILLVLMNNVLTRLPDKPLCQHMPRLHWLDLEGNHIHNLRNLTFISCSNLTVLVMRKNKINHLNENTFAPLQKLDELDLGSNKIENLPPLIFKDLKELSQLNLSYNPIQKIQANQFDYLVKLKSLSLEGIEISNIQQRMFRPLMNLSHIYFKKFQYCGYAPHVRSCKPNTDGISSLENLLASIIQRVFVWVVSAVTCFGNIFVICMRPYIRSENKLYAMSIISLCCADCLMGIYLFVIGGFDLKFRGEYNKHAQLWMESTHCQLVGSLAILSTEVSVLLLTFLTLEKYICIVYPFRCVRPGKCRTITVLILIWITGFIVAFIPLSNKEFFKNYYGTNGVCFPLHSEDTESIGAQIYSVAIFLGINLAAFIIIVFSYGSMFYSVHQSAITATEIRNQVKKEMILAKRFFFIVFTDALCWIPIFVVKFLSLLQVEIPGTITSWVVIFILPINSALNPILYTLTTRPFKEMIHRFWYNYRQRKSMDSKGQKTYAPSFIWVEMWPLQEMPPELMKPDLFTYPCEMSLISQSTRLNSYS
As to the kind of experiment: Single-cell FRET cAMP. The note with it: HeLa, PTX 100 ng/ml, 16 h, forskolin 1 μM.

Turning to `O=S(=O)(NCCNC/C=C/c1ccc(Br)cc1)c1cccc2cnccc12` [H89], the “effect on basal cAMP” value in test [1] is recorded as “basal cAMP levels were significantly increased”. Moreover, in test [2], the “effect on cAMP response to sub-picomolar (10 fM) relaxin” value (shortened to “effect on cAMP response”) is given as “no further increase in cAMP”.

On to `CC(C)Cn1c(=O)n(C)c(=O)c2[nH]cnc21` [IBMX, 3-isobutyl-1-methylxanthine], for which the “effect on basal cAMP” value in test [1] is “significantly increased basal cAMP”. Besides, the “effect on basal cAMP, RXFP1-dependence” value in test [3] was “significantly increased basal cAMP only in cells expressing RXFP1”. Also, in test [2], the “effect on biphasic relaxin concentration–response curve” value is “abolished the biphasic concentration–response curve” and the “effect on cAMP response” value is “no further increase following stimulation with 10 fM relaxin”.

For the compound `CCCCCCOC(=O)[C@]1(O)C[C@@H]2O[C@@]1(C)n1c3ccccc3c3c4c(c5c6ccccc6n2c5c31)C(=O)NC4` [KT5720], the “effect on basal cAMP” value in test [1] is “basal cAMP levels were significantly increased”. In addition, in test [2], the “effect on cAMP response” value is on record as “no further increase in cAMP”.

For `O=C(Nc1cc(C(=O)Nc2ccc(S(=O)(=O)O)cc2S(=O)(=O)O)cc(C(=O)Nc2ccc(S(=O)(=O)O)cc2S(=O)(=O)O)c1)Nc1cc(C(=O)Nc2ccc(S(=O)(=O)O)cc2S(=O)(=O)O)cc(C(=O)Nc2ccc(S(=O)(=O)O)cc2S(=O)(=O)O)c1` [NF449], in test [2], the “effect on cAMP response” value was “significantly inhibited the 10 fM relaxin response”.

Take `CCCCOc1cc(CC2CNC(=O)N2)ccc1OC` (centres unmarked) [Ro 20-1724]: the “effect on basal cAMP” value in test [1] is on record as “significantly increased basal cAMP”. For the same compound, the “effect on cAMP response” value in test [2] was “no further increase following stimulation with 10 fM relaxin”.

In the case of `CN(C(=O)CCCOc1ccc2[nH]c(=O)ccc2c1)C1CCCCC1` [cilostamide], the “effect on basal cAMP” value in test [1] is “no significant effect”. Moreover, the “effect on cAMP response” value in test [2] is on record as “remained responsive to stimulation with 10 fM relaxin”.

Turning to `C[C@H]1O[C@@H](n2cnc3c(N)ncnc32)C[C@@H]1OP(=O)(OCCSC(=O)C(C)(C)C)OCCSC(=O)C(C)(C)C` [ddAB, 2′,5′-dd-3′-AMP-bis(tBuSATE)], the “effect on cAMP response” value in test [2] was “completely abolished the response to 10 fM relaxin”.

Take `O=C1OC2(c3ccccc31)c1ccc(O)c(O)c1Oc1c2ccc(O)c1O` [gallein]: the “effect on cAMP response” value in test [2] is listed as “completely abolished the cAMP accumulation stimulated by 10 fM relaxin”.

“I: PTPEMREKLCGHHFVRALVRVCGGPRWSTEA / II: AAATNPARYCCLSGCTQQDLLTLCPY (disulfide I:10-II:11, I:22-II:24, II:10-II:15) [INSL3]”: the “cAMP accumulation at sub-picomolar concentrations” value with RXFP2/1 (RXFP2/1, pmEpac2) was “not the closely related peptide INSL3, increased cAMP accumulation at sub-picomolar concentrations”. Further, the EC50 is 0.26 ± 0.04 nM in the test with RXFP2/1 (read-out: INSL3 EC50, pmEpac2, RXFP2/1, mean±s.e.m.); 1.42 ± 0.92 nM on RXFP2 [4]; 7.74 ± 1.67 nM at RXFP2 [5]. Further, the “cellular response to sub-picomolar peptide” value on RXFP2 [4] (RXFP2, pmEpac2) was “no evidence of a cellular response”.

On to PTX, for which the “effect on shape of relaxin concentration–response curve” value is on record as “revealed a biphasic, stimulatory concentration–response curve” in the test with RXFP1 [6] and “revealed the biphasic concentration–response curve” with RXFP1 [7]. For the same compound, the “effect on cAMP response” value in test [2] is reported as “did not affect the cAMP response to sub-picomolar concentrations of relaxin”. Moreover, in test [2], the “effect on maximal / classical cAMP response to relaxin” value is on record as “the maximal cAMP response to relaxin was enhanced”.

For cholera toxin, the “effect on basal cAMP” value in test [1] is “potentiated basal”. Besides, in test [2], the “effect on cAMP response” value is reported as “response to 10 fM relaxin reaching the maximal relaxin response”.

For orientation: EC50 means the concentration giving half of the maximal effect.

The values above are taken from paper PMC2924647 (The EMBO Journal, 2010).
